Source: PubChem BioAssay (NCI)
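Protocol summary: plate cells (96-well), add compound at 5 concentrations, incubate 48 h, interpolate endpoints linearly. GI50 is the concentration that inhibits growth by half. At the TGI there is no net growth.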 *1 amine or outer side, *2 acyl side, *3 side chain or, on linkers, in order; H or OH if unused. Where a SMILES comes first, the peptide text is derived from it. [ ]: non-standard residue; d: D form. The star is where a group is joined. ξ: configuration not given here. X15 = CCN(CC)c1ccc2cc(N*)c(=O)oc2c1; dIva = CC[C@@](C)(N)C(=O)O; X14 = O=C(OCCN[*:1])[*:2]; Aib = CC(C)(N)C(=O)O; ξP = O=C(O)C1CCCN1; βAla = NCCC(=O)O

How the values were obtained:
Experiment in all cases: NCI tumour cell line growth inhibition, 48 h
SNB-19 CNS = system: SNB-19 CNS
UACC-257 melanoma = system: UACC-257 melanoma
HCT-116 colon = system: HCT-116 colon
CCRF-CEM leukemia = system: CCRF-CEM leukemia
SK-MEL-5 melanoma = system: SK-MEL-5 melanoma
ACHN renal = system: ACHN renal
HCC-2998 colon = system: HCC-2998 colon
SNB-75 CNS = system: SNB-75 CNS
MDA-MB-231 breast = system: MDA-MB-231 breast
MDA-MB-435 = system: MDA-MB-435

| SMILES | TGI (SNB-19 CNS) [µM] | TGI (UACC-257 melanoma) [µM] | TGI (HCT-116 colon) [µM] | TGI (CCRF-CEM leukemia) [µM] | TGI (SK-MEL-5 melanoma) [µM] | TGI (ACHN renal) [µM] | TGI (HCC-2998 colon) [µM] | GI50 (SNB-19 CNS) [µM] | GI50 (UACC-257 melanoma) [µM] | GI50 (HCT-116 colon) [µM] | GI50 (SNB-75 CNS) [µM] | TGI (SNB-75 CNS) [µM] | GI50 (CCRF-CEM leukemia) [µM] | GI50 (SK-MEL-5 melanoma) [µM] | GI50 (ACHN renal) [µM] | GI50 (MDA-MB-231 breast) [µM] | TGI (MDA-MB-231 breast) [µM] | GI50 (HCC-2998 colon) [µM] | GI50 (MDA-MB-435) [µM] | TGI (MDA-MB-435) [µM] |
| --- | --- | --- | --- | --- | --- | --- | --- | --- | --- | --- | --- | --- | --- | --- | --- | --- | --- | --- | --- | --- |
| N#Cc1cc([N+](=O)[O-])ccc1NC(=O)/C(=N/N)C(C(=O)c1ccc(Cl)c(Cl)c1)C1OC(=O)c2ccccc21 (configuration not stated) | > 100 | > 100 | > 100 | > 100 | > 100 | > 100 | > 100 |  |  |  |  |  |  |  |  |  |  |  |  |  |
| CC1(C)CC[C@]2(C(=O)N3CCOCC3)CC[C@]3(C)C(=CC[C@@H]4[C@@]5(C)C/C(=C/c6ccncc6)C(=O)C(C)(C)[C@@H]5CC[C@]43C)[C@@H]2C1 | 27.7 | > 100 | 2 | > 100 | 3.01 | 21.7 | 7.82 | 6.93 | 3.68 | 0.319 | 3.21 | > 100 | 0.871 | 1.48 | 2.2 | 3.06 | 41.1 | 1.66 |  |  |
| C=CC1C(OC2OC(CO)C(O)C(O)C2O)OC=C(C(=O)OC)C1CC=O (configuration not stated) | > 100 |  |  |  | > 100 | > 100 |  |  |  |  |  | > 100 |  |  |  |  |  |  |  |  |
| O=c1[nH]c(-c2ccc(-c3nc4cc([N+](=O)[O-])ccc4c(=O)[nH]3)cc2)nc2cc([N+](=O)[O-])ccc12 | > 100 | > 100 | > 100 | > 100 | > 100 | > 100 | > 100 |  |  |  |  | > 100 |  |  |  |  |  |  |  |  |
| CC(C)C[C@H](NC(=O)[C@@H](O)[C@H](N)Cc1ccc([N+](=O)[O-])cc1)C(=O)O | > 25 | > 25 | > 25 |  | > 25 | > 25 | > 25 | > 25 | > 25 | > 25 | > 25 | > 25 |  | > 25 | > 25 | > 25 | > 25 | > 25 | > 25 | > 25 |
| Cc1c(Cl)cccc1NC1=C(Cl)C(=O)N(Cc2ccccc2)C1=O | 61.5 |  | 22.1 | 12.5 | 23.9 | 8.92 | 13.6 | 22.1 |  | 10.4 |  |  | 0.392 | 11.7 | 1.29 |  |  | 3.12 | 8.55 | 20.8 |
| C/C=C/C=C/CCCCCCCCCCCCCC1(OC)C=CC(CC(=O)OC)OO1 (configuration not stated) | 31.7 | 35.4 | 21.7 | 5.8 | 22.6 | 16.7 | 9.99 |  |  |  |  | 22.4 | 2.44 |  | 6 |  |  | 3.5 |  |  |
| CCN(CC)c1ccc2cc(NC(=O)OCCNC(=O)CCNC(=O)[C@H](CC(C)C)NC(=O)C(C)(C)NC(=O)C(C)(C)NC(=O)[C@H](CC(C)C)NC(=O)CCNC(=O)C(C)(C)NC(=O)[C@H](CC(C)C)NC(=O)CCNC(=O)[C@@](C)(CC)NC(=O)[C@H](C)NC(=O)CCNC(=O)C(C)(C)NC(=O)[C@H](C)NC(=O)[C@@H]3CCCN3C(=O)[C@@](C)(CC)NC(=O)[C@H](Cc3ccccc3)NC(=O)C3CCCN3C(=O)C(C)(C)NC(=O)C3CCCN3C(=O)C(C)(C)NC(C)=O)c(=O)oc2c1 (some centres not stated) (Ac-[Aib][ξP][Aib][ξP]F[dIva]PA[Aib][βAla]A[dIva][βAla]L[Aib][βAla]L[Aib][Aib]L[βAla][X14]-X15) | 0.0426 | 0.0065 | 0.0455 | 0.0287 | 0.00666 | 0.16 | 0.127 | 0.00355 | 0.00222 | 0.0035 | 0.00254 | 0.0242 | 0.00465 | 0.00256 | 0.0406 |  |  | 0.00477 | 0.00353 | 0.0252 |
| S=C(Nc1cc(Cl)c(Cl)cc1Cl)SCc1ccccc1 | 96.9 | 37.6 | 83 |  | 37.7 | 42.7 |  |  |  |  |  | > 100 |  |  |  |  | 29.6 |  |  | 38.6 |
| C[C@@H](NC1CCC[C@H]1O)c1ccccc1 (some centres not stated) | > 100 | > 100 | > 100 | > 100 | > 100 | > 100 | > 100 |  |  |  |  | > 100 |  |  |  |  |  |  |  |  |
| COc1ccc2c(c1)C(C)Cc1c(Cl)nc(C)nc1N2C (configuration not stated) | 29.5 | 37.8 | 16.4 | > 100 | 11.2 | > 100 | 8.93 | 3.48 | 13.1 | 1.84 | 1.94 | 9.04 | 3.17 | 2.55 | 5.61 | 4.34 | 34.9 | 2.29 |  |  |
| CC(=O)NC1CC2Oc3ccc(C)cc3C(C)(O2)C1O (configuration not stated) | > 100 | > 100 | > 100 | > 100 |  | > 100 |  |  |  |  |  | > 100 |  |  |  |  |  |  |  |  |
| Nc1cc(N)c2nc(-c3ccccc3)c(NCc3ccc(F)cc3)nc2c1 | 20.1 | 4.26 | > 100 |  | 3.61 | 3.11 |  | 6.68 | 2.02 | 12.8 | 2.16 | 5.06 |  | 1.88 | 1.71 | 2.13 | 5.08 |  | 2.01 | 3.74 |
| CCOC(=O)C1=C(Nc2cccc3ccccc23)OC/C1=N\NC(=O)c1ccccc1O | > 100 | 77.1 | > 69.6 | 37.1 | 37.4 | > 100 | > 100 |  |  |  |  | 39.5 |  |  |  |  |  |  |  |  |
| O=C1CCC2(c3ccccc3)Nc3ncccc3N12 (configuration not stated) |  | > 100 |  | > 100 | > 100 | > 100 | > 100 |  |  |  |  | > 100 |  |  |  |  |  |  |  |  |
| COc1cc(C)c(O)c(C(=O)O)c1 | > 100 | > 100 | > 100 | > 100 | > 100 | > 100 | > 100 |  |  |  |  | > 100 |  |  |  |  |  |  |  |  |
| O=C(CCc1cc(-c2ccccc2)nc(=S)[nH]1)Nc1ccccc1[N+](=O)[O-] | > 100 | > 100 | > 100 | > 100 | > 100 | > 100 | > 100 |  |  |  |  | > 100 |  |  |  |  |  |  |  |  |
| COC(=O)C1=C(O)c2cc3c(cc2[C@H](c2cc(OC)c(OC)c(OC)c2)C1C(=O)OC)OCO3 (some centres not stated) | > 100 | > 100 | > 100 | > 100 | > 100 | 58.1 | > 100 |  |  |  |  | 66 |  |  |  |  |  |  |  |  |
